Assay results as given in patent publication US20240299321A1, “METHODS TO SENSITIZE CANCER CELLS AND STANDARDIZED SCREENING ASSAY FOR IMMUNOTHERAPY” (THE TRUSTEES OF INDIANA UNIVERSITY, priority 2020, published 2024).

Tested on: EO771 tumors
Assay: CyTOF immune profile of EO771 tumors
Assay type: in vivo, C57BL/6 mice
Experimental: Animal studies: All animal experiments were performed in accordance with the National Institutes of Health's Animal Use Guidelines and protocols approved by the Animal Care and Use Committee of Indiana University School of Medicine. […] Each mouse was injected with a total of 2×10^5 tumor cells. 5 mice were used in each group. Tumors were measured in two dimensions using a manual caliper. Tumor volume was calculated using the following formula: V=0.5×length×width×width. Tumor volume was measured every 3 days. Tumors were harvested 22 days after injection. The tumor growth, volume and weight were analyzed. To evaluate the anti-tumor effect of drugs in immunocompetent C57BL/6 mice and immunodeficient nude (NU/J) mice, 2×10^5 EO771 cells were orthotopically injected into fat pad of the 4th mammary gland in female mice. […] For CD4/CD8 depletion experiment, the tumor-bearing mice were randomly divided into 7 groups (n=8 mice/group) including isotype control (rat IgG2a, Bioxcell), isotype control+CUDC-101, isotype control+BML-210, anti-CD8 (Clone: 53-6.72, Bioxcell)+CUDC-101, anti-CD8+BML-210, anti-CD4 (Clone: GK1.5, Bioxcell)+CUDC-101, or anti-CD4+BML-210. Intraperitoneal injection of inhibitors (20 mg kg-1) and anti-CD4/CD8 (10 mg kg-1) were administrated to the mice by 3 times/week for 2 weeks. The tumors were harvested at day 18 (NU/J mice) or day 28 (C57BL/6 mice) for further analyses. In immune checkpoint blockade experiment, 2×10^5 EO771 cells were orthotopically injected into fat pad of the 4th mammary gland in female C57BL/6 mice. From day 10, the tumor-bearing mice were randomly divided into each treatment group (n=8 mice/group), and the mice were treated with IgG2a isotype control antibody (clone 2A3, Bioxcell), BML-210 (20 mg kg-1), anti-PD-1 (200 μg/mouse, Bioxcell), or BML-210 and anti-PD-1 combo. The treatment was done 3 times/week for 2 weeks. Tumors were harvested at day 26 post injection and the tumors were analyzed by IHC staining, flow cytometry, ELISA or CyTOF assay. Mass Cytometry (CyTOF): EO771 tumors in C57BL/6 mice were harvested and dissociated into single cells. 1×10^6 single cells from each sample were suspended in ice-cold buffer (PBS with 0.5% BSA and 0.02% Azide). The antibody panel (Table 1) was used for sample staining. Samples were analyzed using the CyTOF 2 Mass Cytometer (Fluidigm). All the samples were done on bead-based normalization before analysis on Cytobank. CyTOF data were analyzed using viSNE analysis64 in the Cytobank platform. The viSNE analysis uses the Barnes-Hut implementation of the t-Distributed Stochastic Neighbor embedding (tSNE) algorithm. The cell populations were visualized on viSNE as an overlay plot.

How did the “infiltration of PMN-MDSCs” value (CD11b+Ly6G+Ly6ClowF4/80−) turn out when Nc1ccccc1NC(=O)CCCCCCC(=O)Nc1ccccc1 [BML-210] was run?
Its value is “decreased infiltration”.

What about the Mo-MDSCs (CD11b+Ly6G-Ly6C+F4/80−) of the same compound?
Its Mo-MDSCs is “increased”.

What about the “tumor-associated macrophage (TAM M1 and TAM M2) populations” value (mouse, in vivo) of the same compound?
The value was “No significant differences”.

What about the “infiltration of immune lymphocytes, particularly CD8+ T effector cells and NK cells” value (tumors 26 days post implantation) of the same compound?
Its value is “notably enhanced infiltration”.
